Measurements published in patent US20220390426A1, “AIE PROBE AND APPLICATION THEREOF” (The Hong Kong University of Science and Technology, priority 2020, published 2022).

Target: albumin (HSA) (Homo sapiens, UniProt P02768)
Test: Albumin detection by ASQ fluorescence in PBS buffer
Type: binding
Conditions: [ASQ]=100 μM, λex=430 nm
Procedure: FIG. 4A The fluorescence response of ASQ to HSA. FIG. 4B Linear plot of l/l0 at 542 nm versus HSA concentrations. l0 equals to the intensity of [HSA]=0 mg/L. FIG. 4C Selectivity study of ASQ towards albumin. l0 equals the intensity of the blank sample. [Biomolecules]=1 mg/mL. [ASQ]=100 μM, λex=430 nm.
Albumin protein is the substance carrier in blood with multiple polar or nonpolar binding sites. […] There is a very good linear relationship between the fluorescence intensity and albumin concentration (FIG. 4B).

Chain of albumin (HSA) (P02768 25-609): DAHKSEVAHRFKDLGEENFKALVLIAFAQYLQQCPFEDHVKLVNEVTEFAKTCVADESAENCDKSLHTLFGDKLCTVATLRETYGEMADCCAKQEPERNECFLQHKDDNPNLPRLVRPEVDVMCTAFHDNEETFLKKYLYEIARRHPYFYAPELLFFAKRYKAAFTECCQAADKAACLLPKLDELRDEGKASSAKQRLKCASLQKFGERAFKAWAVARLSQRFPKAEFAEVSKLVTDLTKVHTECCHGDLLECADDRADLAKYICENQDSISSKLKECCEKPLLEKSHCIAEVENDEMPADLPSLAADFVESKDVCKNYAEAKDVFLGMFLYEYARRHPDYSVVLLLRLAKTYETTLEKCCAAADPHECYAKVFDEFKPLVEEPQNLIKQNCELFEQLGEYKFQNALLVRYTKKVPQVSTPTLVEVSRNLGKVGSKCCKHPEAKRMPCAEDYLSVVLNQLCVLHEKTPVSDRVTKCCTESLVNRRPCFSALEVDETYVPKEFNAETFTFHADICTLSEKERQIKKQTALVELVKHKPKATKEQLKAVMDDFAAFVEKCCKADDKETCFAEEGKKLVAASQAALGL

SMILES: CN(C)c1ccc(C=Cc2nc3ccccc3[nH]c2=O)cc1 [ASQ]
- fluorescence emission response on addition of albumin (ASQ's PBS buffer solution): greatly enhanced
- selectivity towards albumin versus other common biomolecules such as hemoglobin (emission turn-on) ([Biomolecules]=1 mg/mL): good selectivity towards albumin
